The source of these data is PMC11969537 (ACS Chemical Neuroscience, 2025).

The structures appear in SMILES notation.

This assay concerns the target cathepsin B (Mus musculus, UniProt P10605). Put plainly: fluorogenic protease assay with Z-Phe-Arg-AMC at pH […]. It is filed as biochemical.

Chain of cathepsin B (P10605 80-333): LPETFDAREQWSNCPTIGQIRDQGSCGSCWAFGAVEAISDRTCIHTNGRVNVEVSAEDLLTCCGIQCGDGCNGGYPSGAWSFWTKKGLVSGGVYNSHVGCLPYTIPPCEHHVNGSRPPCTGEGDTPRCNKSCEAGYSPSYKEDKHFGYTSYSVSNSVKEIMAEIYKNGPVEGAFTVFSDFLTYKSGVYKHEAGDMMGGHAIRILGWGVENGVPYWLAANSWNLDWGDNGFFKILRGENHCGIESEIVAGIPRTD

`Cc1cccc(C)c1C(=O)OCC(=O)[C@H](CCCCN)NC(=O)[C@H](CCCNC(=N)N)NC(=O)OCc1ccccc1` [Z-Arg-Lys-AOMK] came in with an IC50 of 25 nM.
